Measurements published in patent publication US20230357334A1, “COMPOSITION OF DRUG AND WILD-TYPE CELL-PENETRATING PEPTIDE DERIVATIVE” (ALEPHOSON BIOPHARMACEUTICALS LTD., priority 2020, published 2023).
“Also recorded” adds a separate entry of the source. Where two headings read alike, the source gives them in different places.

Legend:
[1] = rabbit, in vivo
Procedure: Firstly, eye drops were prepared. […] The compositions were stored at 4° C. for later use. Before being used, the compositions were incubated for at least 24 h at 4° C., and kept standing at room temperature for 1 h.
Subsequently, the administration and tissue sampling protocol were determined. Healthy male rabbits each about 1 kg were selected, eyes of which were ensured to be normal by ophthalmic examination before the experiment. The experimental process follows the ethical specifications of experimental animals. […] Ocular tissue samples were taken at 1 h, 4 h, 8 h, 12 h and 24 h after the administration.
The ELISA plate coated with antigen (hVEGF-A165) was prepared, as well as the extracted tissues (total protein extraction solution of blood plasma, aqueous humor, vitreous humor and retina).
Significant differences were analyzed by 1-tailed ANOVA, corrected by Tukey's test (^nsp>0.05, *p<0.05, **p<0.01, compared to the Rani group).

[2] = rabbit, in vivo; remark: listed apart in the source
Procedure: Firstly, eye drops were prepared. Polypeptide/Aflibercept composition was prepared by diluting Aflibercept (40 mg/mL) to 20 mg/mL with a commercially available Aflibercept injection solvent, dissolving polypeptide 289WP to 6.16 mg/mL with this solution, and storing at 4° C. for use. Before being used, the composition was incubated for at least 24 h at 4° C., and kept standing at room temperature for 1 h.
Next, the administration and sampling protocol were determined. Healthy male rabbits each about 1 kg were selected, eyes of which were ensured to be normal by ophthalmic examination before the experiment. The experimental process follows the ethical specifications of experimental animals. Each eye of the rabbit was dripped with 30 μL of different composition solutions containing 600 μg of Aflibercept per eye. Ocular tissue samples were taken at 1 h after administration.
Subsequently, the Aflibercept concentrations in tissues were determined. The ELISA plate coated with antigen (hVEGF-A165) was prepared, as well as the extracted tissues (total protein extraction solution of blood plasma, aqueous humor, vitreous humor and retina). […]
The concentrations of Aflibercept in tissues were measured at 1 h after administration. Significant differences were analyzed by 2-tailed unpaired t-test (^nsp>0.05, *p<0.05).

HCECs [3] = test: Cell uptake of Ranibizumab mediated by different polypeptides, HCECs; type: cell-based, human; settings: for increase of mean fluorescence intensity compared with free antibodies: 10 μM polypeptide + 1 μM Cy5-Rani (10:1), freshly prepared, 2 h, 37° C.; for mean fluorescence intensity of cells, comparison between polypeptides: composition solutions stored at 4° C. for 7 days; for cell uptake of Ranibizumab mediated by polypeptide, comparison between polypeptides: molar ratio 10:1, freshly prepared
Procedure: (§1) Well-grown cells HCECs, ARPE-19 and HUVECs were taken and plated respectively in a 24-well plate at 1×10^4 cells/well. After incubating for 24 h, the culture solution was discarded, and solutions of different compositions of polypeptide/Cy5-Rani mixture (containing 1 μM of Cy5-Rani) were added and incubated for 2 h at 37° C. The drug solution was then discarded, and the cells were washed 3 times with 10 mM PBS (containing 0.02 mg/mL heparin sodium), collected, and resuspended in 10 mM PBS. Flow cytometer was used for detecting positive cell rate and mean fluorescence intensity, with detecting channel excitation wavelength of 638 nm and emission wavelength of 660 nm. […] 10 μM of different polypeptides were mixed with 1 μM Cy5-Rani, respectively, and incubated at 4° C. for 24 h to obtain composition solutions. Before the detection, the composition solutions were incubated at 37° C. with different cells for 2 h, or the composition solutions were stored at 4° C. for 7 days and then incubated with the cells. Flow cytometer was used for detecting the mean fluorescence intensity values of cells (Ex 638 nm/Em 660 nm).

ARPE-19 cells [4] = test: Cell uptake of Ranibizumab mediated by different polypeptides, ARPE-19; type: cell-based, human; settings: for increase of mean fluorescence intensity compared with free antibodies: 10 μM polypeptide + 1 μM Cy5-Rani (10:1), freshly prepared, 2 h, 37° C.; for mean fluorescence intensity of cells, comparison between polypeptides: composition solutions stored at 4° C. for 7 days; for cell uptake of Ranibizumab mediated by polypeptide, comparison between polypeptides: molar ratio 10:1, freshly prepared
Procedure: as §1

ARPE-19 cells [5] = test: Uptake of 89WP/nanoantibody compositions at different ratios, flow cytometry; type: cell-based, human; settings: 89WP:nanoantibody molar ratio 5:1 to 50:1; 2 h
Procedure: 89WP/nanoantibody eye drops were prepared according to the proportion in Table 5, and incubated overnight at 4° C. for later use.
The ARPE-19 cells were plated in a 24-well plate and cultured for over 24 h. The culture solution was then discarded, and 200 μL of the drug solution and 300 μL of serum-free culture solution were added into each well. After 2 h of incubation, the drug solution was discarded, and the cells were washed 3 times with PBS, digested and resuspended in PBS. Flow cytometer was used for detecting Cy5 fluorescence signals (Ex: 645 nm, Em: 665 nm).

[6] = test system: HCECs, ARPE-19 and HUVECs; test: Cell uptake of polypeptide/Ranibizumab compositions at different molar ratios; type: cell-based, human; settings: 89WP:Ranibizumab molar ratio 5:1 to 18:1; 3 kinds of cells; 1 μM Cy5-Rani; 2 h, 37° C.
Procedure: First, Ranibizumab was fluorescently labeled. […] After the addition of 0.12 mg fluorescence labeling reagent Sulfo-Cy5-NHS, the solution was stirred and reacted overnight under the condition of 4° C.
Next, a polypeptide/Ranibizumab composition was prepared. Appropriate amount of polypeptide was weighed and dissolved by using a certain volume of commercially available Ranibizumab injection.
Well-grown cells HCECs, ARPE-19 and HUVECs were taken and plated respectively in a 24-well plate at 1×10^4 cells/well. After incubating for 24 h, the culture solution was discarded, and solutions of different compositions of polypeptide/Cy5-Rani mixture (containing 1 μM of Cy5-Rani) were added and incubated for 2 h at 37° C. The drug solution was then discarded, and the cells were washed 3 times with 10 mM PBS (containing 0.02 mg/mL heparin sodium), collected, and resuspended in 10 mM PBS. Flow cytometer was used for detecting positive cell rate and mean fluorescence intensity, with detecting channel excitation wavelength of 638 nm and emission wavelength of 660 nm.
Significance analysis was performed using One-Way ANOVA test, corrected by Tukey's test (n=3, ^nsp>0.05, *p<0.05, **p<0.01, ***p<0.001).

HCECs [7] = test: Endocytosis mechanism of 289WP/Ranibizumab composition (temperature, endocytosis inhibitors), HCECs; type: cell-based, human; settings: Mixture without inhibition = 100%
Procedure: (§2) The uptake amount of 289WP-FAM or Cy5-Rani in the Mixture without inhibition is used as control (100%). Significant differences were analyzed by 1-tailed ANOVA, corrected by Dunnett's test (n=3, ^nsp>0.05, *p<0.05, **p<0.01, ***p<0.001).

ARPE-19 cells [8] = test: Endocytosis mechanism of 289WP/Ranibizumab composition (temperature, endocytosis inhibitors), ARPE-19; type: cell-based, human; settings: Mixture without inhibition = 100%
Procedure: as §2

## Ranibizumab
[1]
  intraocular absorption after eye drop without penetratin derivative: hardly absorbed

## Aflibercept
[2]
  intraocular absorption after eye drop without penetratin derivative: hardly absorbed

## Q2W, N9W-Penetratin (RWIKIWFQWRRMKWKK) [29WP]
HCECs [3]
  increase of mean fluorescence intensity compared with free antibodies: 13.5 times
  mean fluorescence intensity of cells, comparison between polypeptides: still the highest
  cell uptake of Ranibizumab mediated by polypeptide, comparison between polypeptides: strongest capacity; also recorded: best effect
ARPE-19 cells [4]
  increase of mean fluorescence intensity compared with free antibodies: 11.1 times
  mean fluorescence intensity of cells, comparison between polypeptides: still the highest
  cell uptake of Ranibizumab mediated by polypeptide, comparison between polypeptides: best effect

## Q8W, N9W-Penetratin (RQIKIWFWWRRMKWKK) [89WP]
ARPE-19 cells [5]
  cell uptake of nanoantibody compared with nanoantibody alone: significantly promote
[6]
  increase of 89WP-mediated uptake of antibody compared with free antibody: 2.2-6.7 times

## Cy5-Rani: Cy5-labeled Ranibizumab
HCECs [7]; Dynasore added
  cell uptake rate: 24.4%
HCECs [7]; at 4° C.
  cell uptake rate: 40.6%
HCECs [7]; chlorpromazine added
  cell uptake rate: 37.8%
HCECs [7]; hypertonic sucrose added
  cell uptake rate: 35.2%
ARPE-19 cells [8]; Dynasore added
  cell uptake rate: 31.4%
ARPE-19 cells [8]; at 4° C.
  cell uptake rate: 79.6%
ARPE-19 cells [8]; chlorpromazine added
  cell uptake rate: 63.0%
ARPE-19 cells [8]; hypertonic sucrose added
  cell uptake rate: 75.7%

## Q2W, Q8W, N9W-Penetratin (RWIKIWFWWRRMKWKK) [289WP]
HCECs [3]
  increase of mean fluorescence intensity compared with free antibodies: 14.7 times
  mean fluorescence intensity of cells, comparison between polypeptides: still the highest
  cell uptake of Ranibizumab mediated by polypeptide, comparison between polypeptides: strongest capacity; also recorded: best effect
ARPE-19 cells [4]
  increase of mean fluorescence intensity compared with free antibodies: 11.3 times
  mean fluorescence intensity of cells, comparison between polypeptides: still the highest
  cell uptake of Ranibizumab mediated by polypeptide, comparison between polypeptides: best effect
